# Entries after “also recorded” stand apart in the source; their conditions may differ.
# Experiments:
# [1] = tested on: E0771 mammary carcinoma cells; assay: E0771 mammary fat pad tumors in C57/BL6 mice, lung metastasis and lung immune profiling; assay type: in vivo; conditions: for primary tumor growth / size: 30 mg/kg daily oral gavage from palpable tumors (3 weeks), resection at week 4; for lung metastases (number of mice / incidence): 30 mg/kg daily vs vehicle, H&E lung sections
# Experimental: In this study, E0771 mammary carcinoma cells were injected into the MFP of C57/BL6 mice. Treatment for this group started after tumors were palpable at 3-4 weeks. Similarly, no effect was observed on the primary tumor growth, yet lung metastases were decreased (FIG. 3, Panels A and B). […] Additionally, lung infiltrating CD8+ T-cells increased in iTEAD-treated mice (FIG. 3, Panel D).
# E0771 cells were injected into the mammary fat pad of C57BL/6 mice (Johnstone et al., 2015). When primary tumors became palpable at 3 weeks, mice were treated daily with VT107 or vehicle control. Mice weights were monitored throughout treatment (FIG. 8, Panel B). Primary tumors were surgically resected at week 4 and mice were euthanized at week 6 to inspect lungs for metastases (FIG. 9, Panel A)
# There was no difference in the primary tumor size between treatment groups nor the size of recurrent tumors at 6 weeks (FIG. 9, Panel B and FIG. 8, Panel C). […] To investigate tissue specific effects, gene expression changes between treatment groups in lung and tumor tissues were analyzed by RNA-sequencing. […] To reduce the impact of TEAD inhibition on cancer cell intrinsic function such as dissemination and invasion, 4T1, a triple negative mouse mammary carcinoma cell line (Pulaski & Ostrand-Rosenberg, 2000), was injected into the tail vein of BALB/c mice that directly seed into the lung tissue. A reduction in lung metastases, as well as the suppression of inflammatory pathways, were observed (FIG. 9, Panels E and F, and FIG. 8, Panel F).
# Formalin-fixed, paraffin embedded (FFPE) lung tissue sections were stained with hematoxylin and eosin. Immunohistochemistry staining was performed on FFPE tumor and lung tissue sections. Slides were deparaffinized in xylene and rehydrated following a series of ethanol washes. Heat-induced antigen retrieval was then performed by placing slides in warmed sodium citrate buffer (pH 6.0) (Invitrogen, 005000) in a pre-heated steamer for 20 minutes. Slides were cooled at room temperature for an additional 20 minutes, prior to quenching endogenous peroxidase activity using 3% hydrogen peroxide buffer (Fisher, BP2633500) for 10 minutes. Next, slides were incubated overnight at 4° C. with either anti-CD8 (Cell Signaling Technology, #98941), anti-CD68 (Abcam, ab303565), anti-CD206 (Cell Signaling Technology, #24595), or anti-F480 (Cell Signaling Technology, #70076). Following PBS washes, the slides are then stained with a biotinylated secondary antibody using the VECTASTAIN Elite ABC-HRP Kit according to the user's manual (Vector Laboratories, PK-6101). Positive brown staining was produced by applying ImmPACT DAB EqV Substrate Kit (Vector Laboratories, SK-4103) to the slides, which were then counterstained with hematoxylin (Sigma, MHS16). Images were captured using the Olympus BX40 microscope, and positive staining was quantified manually. Immunofluorescent staining was performed on lung tissue sections. Slides were baked at 60°, deparaffinized in xylene, rehydrated, washed in DI water and incubated with 10% neutral buffered formalin (NBF) for an additional 20 minutes to increase tissue-slide retention. Epitope retrieval/microwave treatment (MWT) for all antibodies was performed by boiling slides in Antigen Retrieval buffer 6 (AR6 pH6, Akoya AR6001KT). Protein blocking is performed using antibody diluent/blocking buffer (Akoya, ARD1001EA) for 10 minutes at room temperature. Slides were incubated with Luciferase antibody (Sigma, #L0159) for 1 hour and OPAL Fluoresce 620 then counterstained with spectral DAPI (Akoya FP1490) for 5 min and mounted with ProLong Diamond Antifade (ThernoFisher, P36961). Slides were scanned at 10× magnification using the Vectra 3.0 Automated Quantitative Pathology Imaging System (PerkinElmer/Akoya).
# Single cell suspensions were washed 2× with PBS. […]
# DCIS cells = assay: Real Time Cell Analysis, proliferation of DCIS cells; assay type: cell-based, human; conditions: VT107 at varying concentrations, cell index
# Experimental: To further examine the effect of TEAD inhibition on the myeloid compartment of the lung, a human breast cancer cell line MCFDCIS (DCIS) that metastasizes to the lungs when a small population of cells (DCISA4) expresses an isoform of the transcription coactivator amplified in breast cancer 1 (Sharif et al., 2021), was used. DCIS:DCISA4 cells were injected into the mammary fat pad of NOD/SCID mice. Mice were treated daily with VT107. Tumors were surgically removed at week 4 and lungs were monitored for metastases for another 4 weeks without receiving additional treatment (FIG. 13, Panel B). Mouse body weights were measured weekly throughout the course of treatment (FIG. 13, Panel C). […] All mice in the vehicle treated group developed lung metastases as previously reported (Sharif et al., 2021). […] RNA was extracted from lung tissues to further examine the host stroma affected by VT107. RNA sequencing reads from the lungs were aligned to the mouse transcriptome to shed light on the host tissue changes in response to treatment in the presence of seeded cancer cells. […]
# Cell analysis was done using E-plates from xCELLigence, (Agilent, #5469830001) according to the manufacturer's protocol. […] Cell index was measured by changes in electric impedance at 15 min intervals. […]
# [2] = tested on: DCIS and DCIS-Δ4 mixed 3D spheres; assay: Invasion of DCIS and DCIS-Δ4 mixed 3D spheres in collagen:matrigel mix; assay type: cell-based, human
# Experimental: To determine iTEAD effect on lung immune microenvironment at steady state, naïve C57/BL6 mice were treated with iTEAD. […] In the absence of cancer cells in these naïve mice, no change in CD8+ T-cells was observed between treatment groups. […] On the cancer cell front, TEAD inhibition had no effect on proliferation yet reduced migration and 3D spheroid collective invasion of breast cancer cells in vitro.
# [3] = flow cytometry, tumor bearing mice
# [4] = flow cytometry, tumor bearing mice, listed as iTEAD
substance,measurement,setting,value
VT107,primary tumor growth / size,[1],no difference
same,primary tumor growth / size,[1]; listed as iTEAD,no effect; also recorded: no change
same,lung metastases (number of mice / incidence),[1],significantly less incidence
same,lung metastases (number of mice / incidence),[1]; listed as iTEAD,decreased; also recorded: reduced
same,number of CD8+ T-cells in lung tissue,"[1]; CD8 immunohistochemistry, tumor bearing mice, listed as iTEAD",increase in the number and infiltration; also recorded: significantly greater
same,CD8+ T-cells in lung metastatic lesions,"[1]; CD8 immunohistochemistry, listed as iTEAD",infiltrated into lung metastases
same,"number of gene changes due to treatment, lungs compared to primary tumors",[1]; RNA-sequencing,higher number
same,size of recurrent tumors,"[1]; at 6 weeks, 2 weeks after resection",no difference
same,CD86 (M1-like) in the lung macrophage population,[1]; [3],significantly enriched
same,CD86/CD206 shift in the alveolar macrophage population,[1]; [3],also significant
same,CD206 (M2-like) in the lung macrophage population,[1]; [3],significantly reduced
same,infiltrating macrophages / monocytes in the lungs,[1]; [4],significant decrease
same,lung infiltrating CD8+ T-cells,[1]; [4],increased; also recorded: higher numbers
same,resident alveolar macrophages in the lungs,[1]; [4],higher frequency; also recorded: significant increase
same,LXR/RXR anti-inflammatory pathway in lung tissues,[1]; pathway analysis,increased
same,"disease-related inflammation pathways (hepatic and lung fibrosis, cardiac hypertrophy) in lung tissues",[1]; pathway analysis,decrease
same,proliferation of DCIS / breast cancer cells in vitro,DCIS cells,no significant change
same,proliferation of DCIS / breast cancer cells in vitro,DCIS cells; listed as iTEAD,no effect
same,migration of breast cancer cells in vitro,[2],reduced
same,3D spheroid collective invasion,[2]; vs control,reduced
